Publication PMC9325861, “Mouse precision-cut liver slices as an ex vivo model to study drug-induced cholestasis” (Archives of Toxicology, 2022)
Values joined by “and” are separate entries in the source; they are usually repeats but may differ in a detail not shown here. Equal values may be shown once. Where a name gives a salt, the structure may show the parent alone.

Columns and labels:
Format in all cases: cell-based
Bsep (Abcb11) = assay: qRT-PCR gene expression in mouse PCLS: Bsep; conditions: 48 h, in the presence and absence of BAs, vs control without drug
Protocol: In short, freshly prepared PCLS were transferred to 12-well plates (Greiner bio-one GmbH, Austria), one slice per well.
(§1) Three PCLS incubated under a given condition were pooled in a 1.5-mL Rnase-free test tube, snap-frozen in liquid nitrogen, and stored at – 80 °C until analysis. RNA was isolated using a FavorPrep Tissue Total RNA Mini Kit (Favorgen, Vienna, Austria). Subsequently, the RNA yield was quantified using a NanoDrop One instrument (Thermo Fisher Scientific, Massachusetts, USA). Isolated RNA was reverse-transcribed to cDNA using a cDNA synthesis kit (Reverse Transcription System, Promega, Benelux B.V.). The cDNA samples were subsequently loaded in the thermal cycler with a program set to 22 °C for 10 min, 42 °C for 15 min, and 95 °C for 5 min.
(§2) qRT-PCR was used to determine the relative mRNA expression levels for the mouse target genes: Bsep (Abcb11), Mrp2 (Abcc2), Mrp3 (Abcc3), Mrp4 (Abcc4), Ntcp (Slc10a1), Fxr (Nr1h4), Cyp7a1 (Cyp7a1), Collagen type 1a1 (Col1a1), Hsp47 (Serpinh1). Primer sequences of the genes tested are given in Supplementary Table S1. QRT-PCR was performed using, the dye, FastStart Universal SYBR Green Master Mix (Roche Diagnostics Netherlands B.V., Almere, the Netherlands) with the ViiA™ 7 Real-Time PCR System (Applied Biosystems, Bleiswijk, the Netherlands). The first cycle constituted 10 min at 95 °C, followed by 40 cycles of 15 s at 95 °C, 30 s at 60 °C and 30 s at 72 °C, followed by 1 cycle dissociation stage (15 s: 95 °C, 60 °C and 95 °C). A minimum of four mouse livers was used for each experiment, using three PCLS per condition. Samples were measured in duplicates. […] Results are expressed as log2(fold change).

Ntcp (Slc10a1) = assay: qRT-PCR gene expression in mouse PCLS: Ntcp; conditions: 48 h, BAs present, highest concentration of CPZ, lowest concentration of GB
Protocol: In short, freshly prepared PCLS were transferred to 12-well plates (Greiner bio-one GmbH, Austria), one slice per well. Each well was filled with 1.3 mL pre-heated (37 ℃) and oxygenated (80%) Williams Medium E (1X, glutaMAX-1), which had been supplemented with 25 mM D-glucose monohydrate and 50 μg/ml Gentamicin (denoted as WME GG). […] The DMSO concentration used was below 0.5% in the incubation medium, equivalent to DMSO concentrations in solutions prepared by dilution of BA stock solutions with WME GG.
as §1, §2

mouse PCLS = assay: LC–MS/MS quantification of intracellular BAs in mouse PCLS; conditions: 48 h
Protocol: In short, freshly prepared PCLS were transferred to 12-well plates (Greiner bio-one GmbH, Austria), one slice per well. […] The composition of the human-like BA mixture was based on serum concentrations in mice and humans, measured by […]. […] A Shimadzu Nexera X2 HPLC system with binary pumps was interfaced to a Thermo Scientific TSQ Quantum ultra-triple quadrupole mass spectrometer. The BA analysis was performed by liquid chromatography-tandem mass spectrometry (LC-MS/MS). Xcalibur software version 2.0.7 by Thermo Scientific was applied in the data processing. […] Phenomenex, Utrecht, the Netherlands) reversed-phase column was used to separate the BAs. The column and autosampler temperatures were set at 55 °C and 4 °C, respectively. The injection volume was 15 μL, and the flow was set at 0.3 mL/min. […] Intracellular BA concentrations in PCLS were measured by LC-MS/MS. Sample preparation for these measurements of intracellular BAs was performed as follows. […] Hereafter, three slices for each condition were pooled in a 1.5-mL test tube, snap-frozen in liquid nitrogen and stored at -80 °C until analysis. […] Samples were subsequently centrifuged for 15 min at 15 °C and 13,000 rpm. The supernatant was collected in a new tube, and the samples were concentrated using a Concentrator plus centrifuge (Eppendorf, Germany). […] The concentrations of CA, CDCA, DCA, LCA, UDCA, HDCA, […] and GCA were determined with MRM-based LC-MS as described above.

[1] = with humanized BA mixture, CPZ 15 µM, CSA 1 µM, GB 25 µM
[2] = with humanized BA mixture, CPZ 30 µM, CSA 6 µM, GB 65 µM
[3] = without BA mixture, CPZ 15 µM, CSA 1 µM, GB 25 µM
[4] = without BA mixture, CPZ 30 µM, CSA 6 µM, GB 65 µM

CN(C)CCCN1c2ccccc2Sc2ccc(Cl)cc21 [CPZ, Chlorpromazine hydrochloride]
Bsep gene expression (Bsep (Abcb11)): reduces
Ntcp gene expression (Ntcp (Slc10a1)): increase the expression of Ntcp significantly
Effect on total intracellular BA concentration (mouse PCLS; in the absence of the BA mixture): increased the total intracellular concentration of BAs
Intracellular CA concentration (mouse PCLS; [1]): 259.9±32.0 pmol/mg protein
Intracellular CDCA concentration (mouse PCLS; [1]): 20.9±1.8 pmol/mg protein
Intracellular DCA concentration (mouse PCLS; [1]): 87.7±14.0 pmol/mg protein
Intracellular GCA concentration (mouse PCLS; [1]): 34.7±16.0 pmol/mg protein
Intracellular HDCA concentration (mouse PCLS; [1]): 4.0±2.5 pmol/mg protein
Intracellular LCA concentration (mouse PCLS; [1]): 3.4±1.3 pmol/mg protein
Intracellular TCA concentration (mouse PCLS; [1]): 244.1±42.8 pmol/mg protein
Intracellular TCDCA concentration (mouse PCLS; [1]): 10.1±0.2 pmol/mg protein
Intracellular TDCA concentration (mouse PCLS; [1]): 14.1±0.8 pmol/mg protein
Intracellular THDCA concentration (mouse PCLS; [1]): 9.4±1.4 pmol/mg protein
Intracellular UDCA concentration (mouse PCLS; [1]): 34.2±4.0 pmol/mg protein
Total intracellular concentration of 11 BAs (mouse PCLS; [1]): 722.5±95.4 pmol/mg protein
Intracellular CA concentration (mouse PCLS; [2]): 314.1±29.7 pmol/mg protein
Intracellular CDCA concentration (mouse PCLS; [2]): 41.3±6.4 pmol/mg protein
Intracellular DCA concentration (mouse PCLS; [2]): 297 pmol/mg protein and 297.9±25.1 pmol/mg protein
Intracellular GCA concentration (mouse PCLS; [2]): 26.1±3.5 pmol/mg protein
Intracellular HDCA concentration (mouse PCLS; [2]): 13.6±3.9 pmol/mg protein
Intracellular LCA concentration (mouse PCLS; [2]): 14.9±8.6 pmol/mg protein
Intracellular TCA concentration (mouse PCLS; [2]): 351.2±67.0 pmol/mg protein
Intracellular TCDCA concentration (mouse PCLS; [2]): 18.2±5.3 pmol/mg protein
Intracellular TDCA concentration (mouse PCLS; [2]): 44.3±5.1 pmol/mg protein
Intracellular THDCA concentration (mouse PCLS; [2]): 9.0±3.0 pmol/mg protein
Intracellular UDCA concentration (mouse PCLS; [2]): 46.3±3.0 pmol/mg protein
Effect on total intracellular BA concentration (mouse PCLS; with humanized BA mixture, vs control): intracellular accumulation of BAs
Intracellular CA concentration (mouse PCLS; [3]): 0.3±0.0 pmol/mg protein
Intracellular CDCA concentration (mouse PCLS; [3]): 0.2±0.2 pmol/mg protein
Intracellular DCA concentration (mouse PCLS; [3]): 0.1±0.1 pmol/mg protein
Intracellular GCA concentration (mouse PCLS; [3]): 0.0±0.0 pmol/mg protein
Intracellular HDCA concentration (mouse PCLS; [3]): 0.0±0.0 pmol/mg protein
Intracellular LCA concentration (mouse PCLS; [3]): 0.2±0.1 pmol/mg protein
Intracellular TCA concentration (mouse PCLS; [3]): 0.8±0.1 pmol/mg protein
Intracellular TCDCA concentration (mouse PCLS; [3]): 14.4±1.7 pmol/mg protein
Intracellular TDCA concentration (mouse PCLS; [3]): 0.1±0.1 pmol/mg protein
Intracellular THDCA concentration (mouse PCLS; [3]): 2.4±0.3 pmol/mg protein
Intracellular UDCA concentration (mouse PCLS; [3]): 0.0±0.0 pmol/mg protein
Total intracellular concentration of 11 BAs (mouse PCLS; [3]): 18.7±0.0 pmol/mg protein
Intracellular CA concentration (mouse PCLS; [4]): 0.4±0.1 pmol/mg protein
Intracellular CDCA concentration (mouse PCLS; [4]): 0.4±0.2 pmol/mg protein
Intracellular DCA concentration (mouse PCLS; [4]): 0.1±0.1 pmol/mg protein
Intracellular GCA concentration (mouse PCLS; [4]): 0.0±0.0 pmol/mg protein
Intracellular HDCA concentration (mouse PCLS; [4]): 0.0±0.0 pmol/mg protein
Intracellular LCA concentration (mouse PCLS; [4]): 0.3±0.2 pmol/mg protein
Intracellular TCA concentration (mouse PCLS; [4]): 1.2±0.1 pmol/mg protein
Intracellular TCDCA concentration (mouse PCLS; [4]): 25.0±2.2 pmol/mg protein
Intracellular TDCA concentration (mouse PCLS; [4]): 0.1±0.1 pmol/mg protein
Intracellular THDCA concentration (mouse PCLS; [4]): 5.2±0.7 pmol/mg protein
Intracellular UDCA concentration (mouse PCLS; [4]): 0.0±0.0 pmol/mg protein
Total intracellular concentration of 11 BAs (mouse PCLS; [4]): 32.7±0.0 pmol/mg protein
